Experimental data: ChEMBL document CHEMBL5143588, “Discovery, Synthesis, and Biological Evaluation of Anaenamides C and D from a New Marine Cyanobacterium, Hormoscilla sp” (J Nat Prod, 2022)
pIC50: −log10 of the molar value. Calls of active or inactive are those of the source. The rule behind the calls is not given here.

How the values were obtained:
[1] = target: T1, Nuclear factor erythroid 2-related factor 2 (Homo sapiens) (UniProt Q16236); assay: Activation of Nrf2 in human HEK293-ARE-Luc cells assessed as fold activation of luciferase activity at 100 uM incubated for 24 hrs by ARE-luciferase reporter gene assay; format: cell-based; details: filed as activator
T1 sequence (whole entry): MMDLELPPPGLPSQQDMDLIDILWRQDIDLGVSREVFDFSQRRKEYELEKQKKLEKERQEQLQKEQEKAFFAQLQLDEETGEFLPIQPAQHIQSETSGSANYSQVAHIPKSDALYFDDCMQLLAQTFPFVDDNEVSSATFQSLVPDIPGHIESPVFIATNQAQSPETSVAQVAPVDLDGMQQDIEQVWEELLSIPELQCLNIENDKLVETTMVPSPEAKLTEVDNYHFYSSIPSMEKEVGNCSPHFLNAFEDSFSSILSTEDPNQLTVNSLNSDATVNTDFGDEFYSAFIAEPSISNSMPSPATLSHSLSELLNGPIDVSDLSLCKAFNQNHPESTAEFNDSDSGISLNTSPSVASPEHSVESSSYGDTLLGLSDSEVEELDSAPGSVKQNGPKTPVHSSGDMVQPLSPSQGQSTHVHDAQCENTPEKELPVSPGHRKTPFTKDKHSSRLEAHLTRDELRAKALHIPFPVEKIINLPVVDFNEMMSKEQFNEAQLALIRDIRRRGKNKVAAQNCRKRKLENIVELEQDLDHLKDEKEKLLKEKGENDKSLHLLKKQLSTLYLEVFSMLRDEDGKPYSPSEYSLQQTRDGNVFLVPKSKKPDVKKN

[2] = target: T1, Nuclear factor erythroid 2-related factor 2 (Homo sapiens); assay: Activation of Nrf2 in human HEK293-ARE-Luc cells assessed as fold activation of luciferase activity at 32 uM incubated for 24 hrs by ARE-luciferase reporter gene assay; format: cell-based; details: filed as activator
[3] = test system: HCT-116; assay: Cytotoxicity against human HCT116 cells assessed as inhibition of cell viability incubated for 48 hrs by MTT assay; format: functional, cell-based; details: HCT-116, 48 h
[4] = target: T1, Nuclear factor erythroid 2-related factor 2 (Homo sapiens); assay: Activation of Nrf2 in human HEK293-ARE-Luc cells at 10 to 100 uM incubated for 24 hrs by ARE-luciferase reporter gene assay; format: cell-based; details: filed as activator, dose 10-100 µM
[5] = test system: HEK293; assay: Cytotoxicity against human HEK293-ARE-Luc cells assessed as reduction in cell viability at 10 to 100 uM incubated for 24 hrs by MTT assay; format: toxicity, cell-based; details: hek293, 24 h, dose 10-100 µM
[6] = test system: HEK293; assay: Cytotoxicity against human HEK293-ARE-Luc cells assessed as change in cell viability incubated for 24 hrs by MTT assay; format: toxicity, cell-based; details: hek293, 24 h

| Compound | fold change (FC) [2] | pIC50 [3] | further results |
| --- | --- | --- | --- |
| CCCCCc1cccc(OC)c1C(=O)O[C@@H](C(=O)O[C@@H](C)C(=O)NC/C=C(\Cl)C(=O)NC(c1ccccc1)(c1ccccc1)c1ccccc1)[C@@H](C)CC | – | – | fold change (FC) [1]: 11 |
| CCCCCc1cccc(OC)c1C(=O)O[C@@H](C(=O)O[C@@H](C)C(=O)NC/C=C(\Cl)C(N)=O)[C@@H](C)CC | 15 | 4.38 | – |
| CCCCCc1cccc(OC)c1C(=O)O[C@@H](C(=O)O[C@@H](C)C(=O)NC/C=C(/Cl)C(=O)NC(c1ccccc1)(c1ccccc1)c1ccccc1)[C@@H](C)CC | – | – | fold change (FC) [1]: 6 |
| CCCCCc1cccc(OC)c1C(=O)O[C@@H](C(=O)O[C@@H](C)C(=O)NC/C=C(/Cl)C(=O)OC)[C@@H](C)CC | – | 5.30 | Activity [4]: Active; Activity [5]: Toxic |
| CC(C)(C)c1cc(O)ccc1O [E319] | 29 | – | Activity [6]: Non-Toxic |
| CCCCCc1cccc(OC)c1C(=O)O[C@@H](C(=O)O[C@@H](C)C(=O)NC/C=C(/Cl)C(N)=O)[C@@H](C)CC | 17 | 4.49 | – |
| CCCCCc1cccc(OC)c1C(=O)O[C@@H](C(=O)O[C@@H](C)C(=O)NC/C=C(\Cl)C(=O)OC)[C@@H](C)CC | – | 5.05 | Activity [4]: Active; Activity [5]: Toxic |
